Laboratory results from patent US20060030615A1, “Progesterone receptor modulators comprising pyrrole-oxindole derivatives and uses thereof” (Wyeth, priority 2004, published 2006).

System: rat uterine decidualization
Assay: Rat Decidualization Assay (mature ovariectomized rats)
Assay type: in vivo
Conditions: rat decidual assay, po
Description: B. Progestational and Antiprogestational Activity in Mature Ovariectomized Rats (Rat Decidualization Assay)
This assay is used to evaluate the effect of progestins and antiprogestins on rat uterine decidualization and compare the relative potencies of various test compounds.
Test compounds are dissolved in 100% ethanol and mixed with corn oil (vehicle). Stock solutions of the test compounds in oil (Mazola™) are then prepared by heating (˜80° C.) the mixture to evaporate ethanol. Test compounds are subsequently diluted with 100% corn oil or 10% ethanol in corn oil prior to the treatment of animals. No difference in decidual response was found when these two vehicles were compared. […]
Approximately 24 hr after the third injection, decidualization is induced in one of the uterine horns of anesthetized rats by scratching the antimesometrial luminal epithelium with a blunt 21 G needle. […] Approximately 24 hr following the final treatment, rats are sacrificed by CO asphyxiation and body weight measured. […]
In agonist mode, the increase in weight of the decidualized uterine horn is calculated by D-horn/C-horn and logarithmic transformation is used to maximize normality and homogeneity of variance. […] EC50 is calculated from the transformed value. […] IC50 is calculated from the retransformed value. […]

| Compound | ED50 [mg/k] |
| --- | --- |
| Cn1c(C#N)ccc1-c1ccc2c(c1)C(C)(C)C(=O)N2 [5-(3,3-dimethyl-2-oxo-2,3-dihydro-1H-indol-5-yl)-1-methyl-1H-pyrrole-2-carbonitrile] | 0.2 |

System: not given
Assay: not given
Conditions: not given

| melting point [°C] | Compound |
| --- | --- |
| 233 to 235 | CCC1(CC)C(=O)Nc2ccc(-c3ccc(C#N)n3C)cc21 [5-(3,3-Diethyl-2-oxo-2,3-dihydro-1H-indol-5-yl)-1-methyl-1H-pyrrole-2-carbonitrile] |

Target: T1, progesterone receptor (Homo sapiens, UniProt P06401)
T1 construct: Effects of Progestins and Antiprogestins on Alkaline Phosphatase Activity in T47D cells; endogenous in cells; host or cells: T47D cells
T1 sequence (P06401 1-933): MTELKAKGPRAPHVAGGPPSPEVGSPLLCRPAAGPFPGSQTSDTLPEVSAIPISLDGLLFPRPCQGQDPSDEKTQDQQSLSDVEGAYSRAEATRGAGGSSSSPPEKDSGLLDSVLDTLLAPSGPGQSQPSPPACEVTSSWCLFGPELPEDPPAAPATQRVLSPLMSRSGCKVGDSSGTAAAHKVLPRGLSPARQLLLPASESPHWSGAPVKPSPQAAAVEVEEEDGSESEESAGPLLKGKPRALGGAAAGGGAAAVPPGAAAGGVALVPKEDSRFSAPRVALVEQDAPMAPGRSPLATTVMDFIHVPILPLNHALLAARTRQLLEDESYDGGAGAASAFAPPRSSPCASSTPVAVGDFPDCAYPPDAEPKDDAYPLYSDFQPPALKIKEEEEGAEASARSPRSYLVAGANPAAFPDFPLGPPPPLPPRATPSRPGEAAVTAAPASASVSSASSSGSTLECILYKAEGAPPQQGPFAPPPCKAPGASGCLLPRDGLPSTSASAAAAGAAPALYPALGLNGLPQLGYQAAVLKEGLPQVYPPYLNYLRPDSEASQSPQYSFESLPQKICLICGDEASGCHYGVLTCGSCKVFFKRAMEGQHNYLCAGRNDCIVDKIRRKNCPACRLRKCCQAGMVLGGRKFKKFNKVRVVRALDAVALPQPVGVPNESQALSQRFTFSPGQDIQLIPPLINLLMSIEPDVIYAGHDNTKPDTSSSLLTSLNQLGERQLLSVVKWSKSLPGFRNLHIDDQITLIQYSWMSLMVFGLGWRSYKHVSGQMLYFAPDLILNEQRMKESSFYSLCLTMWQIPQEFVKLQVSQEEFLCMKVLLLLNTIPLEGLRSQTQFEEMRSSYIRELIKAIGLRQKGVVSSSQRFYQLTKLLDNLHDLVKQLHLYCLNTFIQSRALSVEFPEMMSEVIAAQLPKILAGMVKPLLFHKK
Assay: T47D Cell Alkaline Phosphatase Assay
Assay type: cell-based
Conditions: antagonist mode, T47D cells, in the presence of 1 nM progesterone, 24 hours
Description: A. Effects of Progestins and Antiprogestins on Alkaline Phosphatase Activity in T47D cells (T47D Alkaline Phosphatase Assay)
The molecules of the present invention are anticipated to be active in the antagonist mode in the T47D alkaline phosphatase assay at concentrations of 3 μM or lower.
Culture medium: DMEM:F12 (1:1) (GIBCO, BRL) supplemented with 5% (v/v) charcoal stripped fetal bovine serum (not heat-inactivated), 100 U/ml penicillin, 100 μg/ml streptomycin, and 2 mM GlutaMax (GIBCO, BRL).
Alkaline phosphatase assay buffer: I. 0.1M Tris-HCI, pH 9.8, containing 0.2% Triton X-100, 0.1M Tris-HCI, pH 9.8, containing 4 mM p-nitrophenyl phosphate (Sigma).
2. Cell Culture And Treatment:
Frozen T47D cells are thawed in a 37° C. water bath and diluted to 280,000 cells/ml in culture medium. To each well in a 96-well plate (Falcon, Becton Dickinson Labware), 180 μl of diluted cell suspension is added. Twenty μl of reference or test compounds diluted in the culture medium is then added to each well. When testing for progestin antagonist activity, reference antiprogestins or test compounds are added in the presence of 1 nM progesterone. The cells are incubated at 37° C. in a 5% CO2 humidified atmosphere for 24 hours. For high throughput screening, one concentration of each compound will be tested at 0.3 μg/ml. Based on an average molecular weight of 300 g/mol for the compounds in the library, the concentration is approximately 1 μM. Subsequently, active compounds will be tested in dose response assays to determine EC50 and IC50.
3. Alkaline Phosphatase Enzyme Assay:
At the end of treatment, the medium is removed from the plate. Fifty μl of assay buffer I is added to each well. The plates are shaken in a titer plate shaker for 15 min. Then 150 μl of assay buffer II is added to each well. Optical density measurements are taken at 5 min intervals for 30 min. at a test wavelength of 405 nm.
4. Analysis of Dose-Response Data.
For reference and test compounds, a dose response curve is generated for dose vs. the rate of enzyme reaction (slope). Square root-transformed data are used for analysis of variance and nonlinear dose response curve fitting for both agonist and antagonist modes. Huber weighting is used to down-weight the effects of outliers. EC50 or IC50 values are calculated from the retransformed values. JMP software (SAS Institute, Inc.) is used for both one-way analysis of variance and non-4 linear dose response analysis in both single dose and dose response studies.
Progesterone and trimegestone are reference progestins and RU486 is the reference antiprogestin. All reference compounds are run in full dose response curves and the EC50 and IC50 values are calculated.

| Compound | IC50 [nM] |
| --- | --- |
| CC[C@@]1(C)C(=O)Nc2ccc(-c3ccc(C#N)n3C)cc21 (single isomer, unassigned) | 3.2 |
| CN1C(=O)C(C)(C)c2cc(-c3ccc(C#N)n3C)ccc21 [1-methyl-5-(1,3,3-trimethyl-2-oxo-2,3-dihydro-1H-indol-5-yl)-1H-pyrrole-2-carbonitrile] | 13.3 |
| CC[C@]1(C)C(=O)Nc2ccc(-c3ccc(C#N)n3C)cc21 (single isomer, unassigned) | 7.4 |
| Cn1c(C#N)ccc1-c1ccc2c(c1)C(C)(C)C(=O)N2 [5-(3,3-dimethyl-2-oxo-2,3-dihydro-1H-indol-5-yl)-1-methyl-1H-pyrrole-2-carbonitrile] | 10 |
| N#Cc1ccc(-c2ccc3c(c2)C2(CCCC2)C(=O)N3)[nH]1 [5-(1,2-Dihydro-2-oxospiro[cyclopentane-1,3-[3H]indol]-5-yl)-1H-pyrrole-2-carbonitrile] | 60 |
| Cn1c(C#N)ccc1-c1ccc2c(c1)C1(CCCC1)C(=O)N2 [1-methyl-5-(2′-oxo-1′,2′-dihydrospiro[cyclopentane-1,3′-indol]-5′-yl)-1H-pyrrole-2-carbonitrile] | 30 |
| Cn1c(C#N)ccc1-c1ccc2c(c1)C1(CCC1)C(=O)N2 [1-methyl-5-(2′-oxo-1′,2′-dihydrospiro[cyclobutane-1,3′-indol]-5′-yl)-1H-pyrrole-2-carbonitrile] | 1 |
| Cn1c(C#N)ccc1-c1ccc2c(c1)CC(=O)N2 [1-methyl-5-(2-oxo-2,3-dihydro-1H-indol-5-yl)-1H-pyrrole-2-carbonitrile] | 20.4 |
| CC(C)(C)OC(=O)n1c(C#N)ccc1-c1ccc2c(c1)C1(CCCC1)C(=O)N2 [2-Cyano-5-(1,2-dihydro-2-oxospiro[cyclopentane-1,3-[3H]indol]-5-yl)-1H-pyrrole-1-carboxylic acid, tert-butyl ester] | 300 |

Continued by falling IC50, values first:

| IC50 [nM] | Compound |
| --- | --- |
| 72.9 | CN1C(=O)C(C)(C)c2cc(-c3ccc(C#N)[nH]3)ccc21 [5-(1,3,3-trimethyl-2-oxo-2,3-dihydro-1H-indol-5-yl)-1H-pyrrole-2-carbonitrile] |
| 27.2 | CC1(C)C(=O)Nc2ccc(-c3ccc(C#N)[nH]3)cc21 [5-(3,3-Dimethyl-2-oxo-2,3-dihydro-1H-indol-5-yl)-1H-pyrrole-2-carbonitrile] |
| 13.1 | CC[C@@H]1C(=O)Nc2ccc(-c3ccc(C#N)n3C)cc21 (single isomer, unassigned) |
| 8.1 | Cn1c(C#N)ccc1-c1ccc2c(c1)C1(CC1)C(=O)N2 [1-methyl-5-(2′-oxo-1′,2′-dihydrospiro[cyclopropane-1,3′-indol]-5′-yl)-1H-pyrrole-2-carbonitrile] |
| 6.1 | CC[C@H]1C(=O)Nc2ccc(-c3ccc(C#N)n3C)cc21 (single isomer, unassigned) |
| 5.7 | CCC1C(=O)Nc2ccc(-c3ccc(C#N)n3C)cc21 (racemic) [5-(3-ethyl-2-oxo-2,3-dihydro-1H-indol-5-yl)-1-methyl-1H-pyrrole-2-carbonitrile] |
| 3.3 | CCC1(CC)C(=O)Nc2ccc(-c3ccc(C#N)n3C)cc21 [5-(3,3-Diethyl-2-oxo-2,3-dihydro-1H-indol-5-yl)-1-methyl-1H-pyrrole-2-carbonitrile] |
